Laboratory results as given in patent publication US7173004B2, “Macrocyclic isoquinoline peptide inhibitors of hepatitis C virus” (Bristol-Myers Squibb Company, priority 2003, dated 2007).

What follows are compounds tested on HCV replicon (HCV 1b-377-neo replicon cells, Huh7) (assay: HCV replicon cell-based FRET assay). Settings: Hepatitis C virus, Huh-7.
Experimental: HCV Replion assays were utilized in the present invention, and were prepared, conducted and validated as follows:
An HCV replicon whole cell system was established as described by Lohmann V, Korner F, Koch J, Herian U, Theilmann L, Bartenschlager R., Science 285(5424): 110–3 (1999). This system enabled us to evaluate the effects of our HCV Protease compounds on HCV RNA replication. Briefly, using the HCV strain 1B sequence described in the Lohmann paper (Assession number: AJ238799), an HCV cDNA was synthesized by Operon Technologies, Inc. (Alameda, Calif.), and the full-length replicon was then assembled in plasmid pGem9zf(+) (Promega, Madison, Wis.) using standard molecular biology techniques. The replicon consists of (i) the HCV 5′ UTR fused to the first 12 amino acids of the capsid protein, (ii) the neomycin phosphotransferase gene (neo), (iii) the IRES from encephalomyocarditis virus (EMCV), and (iv) HCV NS3 to NS5B genes and the HCV 3′ UTR. Plasmid DNAs were linearized with ScaI and RNA transcripts were synthesized in vitro using the T7 MegaScript transcription kit (Ambion, Austin, Tex.) according to manufacturer's directions. To generate cell lines, 4×10^6 Huh-7 cells (kindly provided by R. Bartenschlager and available from Health Science Research Resources Bank, Japan Health Sciences Foundation) were electroporated (GenePulser System, Bio-Rad) with 10 microgram(“μg”) of RNA transcript and plated into 100-mm dishes. After 24 h, selective media containing 1.0 milligrams/milliliter (“mg/ml”) G418 was added and media was changed every 3 to 5 days. Approximately 4 weeks after electroporation, small colonies were visible which were isolated and expanded for further analysis. These cell lines were maintained at 37° C., 5% CO2, 100% relative humidity in DMEM (Cat# 11965-084) Gibco-BRL, Rockville, Md., with 10% heat inactivated calf serum (Sigma), 10 ml of 100× penicillin/streptomycin (Cat# 15140-122) Gibco-BRL, Rockville, Md., Geneticin (Cat# 10131-027) Gibco-BRL, Rockville, Md. at 1 mg/ml. One of the cell lines (deposited as ATCC Accession No. PTA-4583 in the American Type Culture Collection) which had approximately 3,000 copies of HCV replicon RNA/cell was used for development of the assay (HCV 1b-377-neo replicon cells).
Huh7 cells, constitutively expressing the HCV replicon, were grown in Dulbecco's Modified Eagle Media (DMEM) containing 10% Fetal calf serum (FCS) and 1 mg/ml G418 (Gibco-BRL). Cells were seeded the night before (1.5×10^4 cells/well) in 96-well tissue-culture sterile plates. Compound and no compound controls were prepared in DMEM containing 4% FCS, 1:100 Penicillin/Streptomysin, 1:100 L-glutamine and 5% DMSO in the dilution plate (0.5% DMSO final concentration in the assay). Compound/DMSO mixes were added to the cells and incubated for 4 days at 37° C. After 4 days, cells were first assessed for cytotoxicity using alamar Blue (Trek Diagnotstic Systems) for a CC50 reading. The toxicity of compound (CC50) was determined by adding 1/10th volume of alamar Blue to the media incubating the cells. After 4 hr, the fluorescence signal from each well was read, with an excitation wavelength at 530 nm and an emission wavelength of 580 nm, using the Cytofluor Series 4000 (Perspective Biosystems). Plates were then rinsed thoroughly with Phosphate-Buffered Saline (PBS) (3 times 150 μl). The cells were lysed with 25 μl of a lysis assay reagent containing an HCV protease substrate (5× cell Luciferase cell culture lysis reagent (Promega #E153A) diluted to 1× with distilled water, NaCl added to 150 mM final, the FRET peptide diluted to 10 μM final from a 2 mM stock in 100% DMSO). The HCV protease substrate (FRET peptide; AnaSpec, Inc. cat #22991, described by Taliani et al. in Anal. Biochem. 240(2):60–67 (1996)) contains a fluorescence donor, EDANS, near one end of the peptide and an acceptor, DABCYL, near the other end. […]

Compound | EC50
CCC1(S(=O)(=O)NC(=O)C23CC2C=CCCC[S+]([O-])CC(NC(=O)OC(C)(C)C)C(=O)N2CC(Oc4nccc5cc(OC)ccc45)CC2C(=O)N3)CC1 (stereo not shown) [Compound 47] | < 50 nM
CC(C)(C)OC(=O)N[C@H]1CCCCC/C=C\[C@@H]2C[C@@]2(C(=O)NS(C)(=O)=O)NC(=O)[C@@H]2C[C@@H](Oc3nccc4ccccc34)CN2C1=O [Compound 2, [18-(Isoquinolin-1-yloxy)-4-methanesulfonylaminocarbonyl-2,15-dioxo-3,16-diaza-tricyclo[14.3.0.0^4,6]nonadec-7-en-14-yl]-carbamic acid tert-butyl ester] | 50 to 500 nM
COc1ccc2c(OC3CC4C(=O)NC5(C(=O)NS(=O)(=O)C6(C)CC6)CC5C=CCCCSCC(NC(=O)NC5CCCC5)C(=O)N4C3)nccc2c1 (stereo not shown) [Compound 43] | < 50 nM
COc1ccc2c(O[C@@H]3C[C@H]4C(=O)N[C@]5(C(=O)NS(=O)(=O)C6CC6)C[C@H]5/C=C\CCCCC[C@H](NC(=O)OC(C)(C)C)C(=O)N4C3)nccc2c1 [Compound 17B, [4-Cyclopropanesulfonylaminocarbonyl-18-(6-methoxy-isoquinolin-1-yloxy)-2,15-dioxo-3,16-diaza-tricyclo[14.3.0.0^4,6]nonadec-7-en-14-yl]-carbamic acid tert-butyl ester] | < 50 nM
O=C(N[C@H]1CCCCC/C=C\[C@@H]2C[C@@]2(C(=O)NS(=O)(=O)C2CC2)NC(=O)[C@@H]2C[C@@H](Oc3nccc4ccccc34)CN2C1=O)OC1CCOCC1 [Compound 14, [4-Cyclopropanesulfonylaminocarbonyl-18-(isoquinolin-1-yloxy)-2,15-dioxo-3,16-diaza-tricyclo[14.3.0.0^4,6]nonadec-7-en-14-yl]-carbamic acid tetrahydro-pyran-4-yl ester] | < 50 nM
COc1ccc2c(OC3CC4C(=O)NC5(C(=O)NS(=O)(=O)C6CC6)CC5C=CCCCOC(C)C(NC(=O)OCC(C)(C)C)C(=O)N4C3)nccc2c1 (stereo not shown) [Compound 63] | 50 to 500 nM
CC(C)(C)OC(=O)N[C@H]1CCCCC/C=C\[C@@H]2C[C@@]2(C(=O)NS(=O)(=O)C2CC2)NC(=O)[C@@H]2C[C@@H](Oc3nc(-c4ccccc4)cc4ccccc34)CN2C1=O [Compound 58, [(Z)-(1S,4R,14S,18R)-4-cyclopropanesulfonylaminocarbonyl-2,15-dioxo-18-(3-phenyl-isoquinolin-1-yloxy)-3,16-diaza-tricyclo[14.3.0.0^4,6]nonadec-7-en-14-yl]-carbamic acid tert-butyl ester] | < 50 nM
COc1ccc2c(OC3CC4C(=O)NC5(C(=O)NS(=O)(=O)C6CC6)CC5C=CCOCCCC(NC(=O)NC(C)(C)C)C(=O)N4C3)nccc2c1 (stereo not shown) [Compound 34] | < 50 nM
CC(C)(CCl)OC(=O)NC1CCCCCC=CC2CC2(C(=O)NS(=O)(=O)C2CC2)NC(=O)C2CC(Oc3nccc4ccccc34)CN2C1=O (stereo not shown) [Compound 52] | < 50 nM
COc1ccc2c(OC3CC4C(=O)NC5(C(=O)NS(=O)(=O)C6CC6)CC5C=CCCCSCC(NC(=O)OCC(C)(C)C)C(=O)N4C3)nccc2c1 (stereo not shown) [Compound 75] | < 50 nM
COc1ccc2c(OC3CC4C(=O)NC5(C(=O)NS(=O)(=O)C6(C)CC6)CC5C=CCOCCCC(NC(=O)OC(C)C)C(=O)N4C3)nccc2c1 (stereo not shown) [Compound 35] | < 50 nM
CC(C)(C)COC(=O)N[C@H]1CCCCC/C=C\[C@@H]2C[C@@]2(C(=O)NS(=O)(=O)C2CC2)NC(=O)[C@@H]2C[C@@H](Oc3nccc4ccccc34)CN2C1=O [Compound 13, [4-Cyclopropanesulfonylaminocarbonyl-18-(isoquinolin-1-yloxy)-2,15-dioxo-3,16-diaza-tricyclo[14.3.0.0^4,6]nonadec-7-en-14-yl]-carbamic acid 2,2-dimethyl-propyl ester] | < 50 nM
CCC1(S(=O)(=O)NC(=O)C23CC2C=CCCCOC(C)C(NC(=O)NC2CCCC2)C(=O)N2CC(Oc4nccc5cc(OC)ccc45)CC2C(=O)N3)CC1 (stereo not shown) [Compound 73] | 50 to 500 nM
CC(C)(C)OC(=O)N[C@H]1CCCCC/C=C\[C@@H]2C[C@@]2(C(=O)O)NC(=O)[C@@H]2C[C@@H](Oc3nccc4ccccc34)CN2C1=O [Compound 1, 14-tert-Butoxycarbonylamino-18-(isoquinolin-1-yloxy)-2,15-dioxo-3,16-diaza-tricyclo[14.3.0.0^4,6]nonadec-7-ene-4-carboxylic acid] | 500 to 5000 nM
COc1ccc2c(OC3CC4C(=O)NC5(C(=O)NS(=O)(=O)C6(C)CC6)CC5C=CCOCCCC(NC(=O)OC(C)(C)C)C(=O)N4C3)nccc2c1 (stereo not shown) [Compound 29] | < 50 nM
COc1ccc2c(OC3CC4C(=O)NC5(C(=O)NS(=O)(=O)C6CC6)CC5C=CCCCCCC(NC(=O)N5CCCC5)C(=O)N4C3)nccc2c1 (stereo not shown) [Compound 60] | < 50 nM
CCC1(S(=O)(=O)NC(=O)C23CC2C=CCCCS(=O)(=O)CC(NC(=O)OC(C)(C)C)C(=O)N2CC(Oc4nccc5cc(OC)ccc45)CC2C(=O)N3)CC1 (stereo not shown) [Compound 48] | 50 to 500 nM
O=C(N[C@H]1CCCCC/C=C\[C@@H]2C[C@@]2(C(=O)NS(=O)(=O)C2CC2)NC(=O)[C@@H]2C[C@@H](Oc3nccc4ccccc34)CN2C1=O)O[C@H]1CCOC1 [Compound 15, [4-Cyclopropanesulfonylaminocarbonyl-18-(isoquinolin-1-yloxy)-2,15-dioxo-3,16-diaza-tricyclo[14.3.0.0^4,6]nonadec-7-en-14-yl]-carbamic acid tetrahydro-furan-3-yl ester] | < 50 nM
CC1(OC(=O)N[C@H]2CCCCC/C=C\[C@@H]3C[C@@]3(C(=O)NS(=O)(=O)C3CC3)NC(=O)[C@@H]3C[C@@H](Oc4nccc5ccccc45)CN3C2=O)CCC1 [Compound 56, [(Z)-(1S,4R,14S,18R)-4-cyclopropanesulfonylaminocarbonyl-18-(isoquinolin-1-yloxy)-2,15-dioxo-3,16-diaza-tricyclo[14.3.0.0^4,6]nonadec-7-en-14-yl]-carbamic acid 1-methyl-cyclobutyl ester] | < 50 nM
O=C(NC1CCCCCC=CC2CC2(C(=O)NS(=O)(=O)C2CC2)NC(=O)C2CC(Oc3nccc4ccccc34)CN2C1=O)OC1CCCC1 (stereo not shown) [Compound 20] | < 50 nM
COc1ccc2c(OC3CC4C(=O)NC5(C(=O)NS(=O)(=O)C6CC6)CC5C=CCOCCCC(NC(=O)OC(C)(C)C(F)(F)F)C(=O)N4C3)nccc2c1 (stereo not shown) [Compound 39] | < 50 nM
COc1ccc2c(OC3CC4C(=O)NC5(C(=O)NS(=O)(=O)C6CC6)CC5C=CCCCOC(C)C(NC(=O)OC(C)C)C(=O)N4C3)nccc2c1 (stereo not shown) [Compound 64] | 50 to 500 nM
COc1ccc2c(OC3CC4C(=O)NC5(C(=O)NS(=O)(=O)C6(C)CC6)CC5C=CCCCOC(C)C(NC(=O)OC(C)(C)C)C(=O)N4C3)nccc2c1 (stereo not shown) [Compound 66] | 50 to 500 nM
CCC1(S(=O)(=O)NC(=O)C23CC2C=CCCCSCC(NC(=O)NC2CCCC2)C(=O)N2CC(Oc4nccc5cc(OC)ccc45)CC2C(=O)N3)CC1 (stereo not shown) [Compound 46] | < 50 nM

Same assay, conditions: Hepatitis C virus, Huh-7; read-out: EC50 value in the replicon assay

Compound | EC50
CC(C)(C)OC(=O)N[C@H]1CCCCC/C=C\[C@@H]2C[C@@]2(C(=O)NS(C)(=O)=O)NC(=O)[C@@H]2C[C@@H](Oc3nccc4ccccc34)CN2C1=O [Compound 2, [18-(Isoquinolin-1-yloxy)-4-methanesulfonylaminocarbonyl-2,15-dioxo-3,16-diaza-tricyclo[14.3.0.0^4,6]nonadec-7-en-14-yl]-carbamic acid tert-butyl ester] | 146 nM
